This is an account of results in patent publication US6140368A, “Naphthols useful in antiviral methods” (The Regents of the University of California, priority 1998, dated 2000).

Where two headings read alike, the source gives them in different places. Where only a bound is given, the exact number is not on record here.

In test [1] the target is HIV reverse transcriptase (Human immunodeficiency virus type 1 group M subtype B, UniProt P03366). Kind of test: Reverse transcriptase scintillation proximity assay (Example 4, Table 2). Format: biochemical. Particulars: for remaining activity at 10 µM: 0.05 h, read-out: % RT activity remaining at 10 μM; for IC50: read-out: IC50 (RT activity). Summed up: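 Purified RT with biotinylated 17mer/50mer RNA-DNA template-primer (39 nm), pH 8.0 Tris with 10 mM MgCl2, 60 mM KCl, dNTPs plus tritiated dTTP; inhibitor preincubated 10 min at 37 °C before enzyme, reaction 3 min. Incorporation read by streptavidin SPA counting.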
Background: Scintillation proximity formats need no separation of bound from free tracer.

Test [2] addresses T1, HIV integrase (Human immunodeficiency virus type 1 group M subtype B, UniProt P04585). Put plainly: biochemical.
Test [3] has as its target T1, HIV integrase. Put plainly: biochemical. This is another data set of the same source.
Where [4] appears, read: 10 μM inhibitor, relative to dimethyl sulfoxide = 100%.
[5] abbreviates: Inhibition of 3' processing activity (IC50).
Where [6] appears, read: Inhibition of strand transfer (IC50).
[7] abbreviates: read-out: Inhibition of 3' processing activity (IC50).
Setting [8] is: read-out: Inhibition of strand transfer (IC50).

As to `O=C(Nc1ccc2c(O)c(N=Nc3cccc([N+](=O)[O-])c3)c(S(=O)(=O)O)cc2c1)Nc1ccc2c(O)c(N=Nc3cccc([N+](=O)[O-])c3)c(S(=O)(=O)O)cc2c1` [Compound 45], in test [1] (setting [4]), the remaining activity (commonly the signal under treatment as a percentage of the control signal) at 10 µM was determined as 2.8%. In addition, the IC50 against HIV integrase [2] (setting [5]) and at HIV integrase [3] (setting [6]) was > 3 µM throughout.
For `O=C(Nc1ccc2c(O)c(N=Nc3ccc4oc(=O)ccc4c3)c(S(=O)(=O)O)cc2c1)Nc1ccc2c(O)c(N=Nc3ccc4oc(=O)ccc4c3)c(S(=O)(=O)O)cc2c1` [Compound 59], the remaining activity at 10 µM in test [1] (setting [4]) amounted to 2%. Also, the results for the IC50 on HIV integrase [2] (setting [7]) and on HIV integrase [3] (setting [8]) were 2 µM and 1 µM, respectively.
For `O=C(Nc1ccc2c(O)c(N=Nc3ccccc3)c(S(=O)(=O)O)cc2c1)Nc1ccc2c(O)c(N=Nc3ccccc3)c(S(=O)(=O)O)cc2c1` [Compound 4, calcomine orange, reference compound], the IC50 (usually the concentration that inhibits the measured activity by half) in test [1] was determined as 1.5 µM; on HIV integrase [2] (setting [7]), 2 µM; at HIV integrase [3] (setting [8]), 2 µM.
With `O=C(Nc1ccc2c(O)c(N=Nc3c(Cl)cc(C(=O)O)cc3Cl)c(S(=O)(=O)O)cc2c1)Nc1ccc2c(O)c(N=Nc3c(Cl)cc(C(=O)O)cc3Cl)c(S(=O)(=O)O)cc2c1` [Compound 52], in test [1] (setting [4]), the remaining activity at 10 µM was found to be 1.3%. Also, the figures for the IC50 at HIV integrase [2] (setting [7]) and on HIV integrase [3] (setting [8]) were 0.2 µM and 0.5 µM, respectively.
Consider `O=C(O)CC(C(=O)O)c1ccc(N=Nc2c(S(=O)(=O)O)cc3cc(NC(=O)Nc4ccc5c(O)c(N=Nc6ccc(C(CC(=O)O)C(=O)O)cc6)c(S(=O)(=O)O)cc5c4)ccc3c2O)cc1` (centres unmarked) [Compound 33], for which the results for the IC50 (in test [1]; at HIV integrase [2] (setting [7]); at HIV integrase [3] (setting [8])) were 0.5 µM, 0.3 µM and 0.6 µM, respectively.
For `COc1cc(N=Nc2c(S(=O)(=O)O)cc3cc(NC(=O)Nc4ccc5c(O)c(N=Nc6cc(OC)c(OC)cc6C(=O)O)c(S(=O)(=O)O)cc5c4)ccc3c2O)c(C(=O)O)cc1OC` [Compound 60], in test [1] (setting [4]), the remaining activity at 10 µM stood at 6%. For the same compound, the IC50 was determined as 0.8 µM on HIV integrase [2] (setting [7]) and 2 µM at HIV integrase [3] (setting [8]).
As for `O=C(Nc1ccc2c(O)c(N=Nc3cccc4c(=O)[nH][nH]c(=O)c34)c(S(=O)(=O)O)cc2c1)Nc1ccc2c(O)c(N=Nc3cccc4c(=O)[nH][nH]c(=O)c34)c(S(=O)(=O)O)cc2c1` [Compound 49], the remaining activity at 10 µM in test [1] (setting [4]) amounted to 1%. For the same compound, the IC50 on HIV integrase [2] (setting [7]) was determined as 2 µM; at HIV integrase [3] (setting [8]), 1 µM.
Turning to `O=C(Nc1ccc2c(O)c(N=Nc3ccc([N+](=O)[O-])cc3)c(S(=O)(=O)O)cc2c1)Nc1ccc2c(O)c(N=Nc3ccc([N+](=O)[O-])cc3)c(S(=O)(=O)O)cc2c1` [Compound 46], in test [1] (setting [4]), the remaining activity at 10 µM stood at 4.6%. Further, the IC50 against HIV integrase [2] (setting [5]) and at HIV integrase [3] (setting [6]) was > 3 µM in each case.
As for `COC(=O)c1ccc(N=Nc2c(S(=O)(=O)O)cc3cc(NC(=O)Nc4ccc5c(O)c(N=Nc6ccc(C(=O)OC)cc6I)c(S(=O)(=O)O)cc5c4)ccc3c2O)c(I)c1` [Compound 47], the remaining activity at 10 µM in test [1] (setting [4]) came to 2%. Besides, the IC50 at HIV integrase [2] (setting [7]) and at HIV integrase [3] (setting [8]) was > 3 µM throughout.
For `O=C(Nc1ccc2c(O)c(N=Nc3cc(C(=O)O)cc(C(=O)O)c3)c(S(=O)(=O)O)cc2c1)Nc1ccc2c(O)c(N=Nc3cc(C(=O)O)cc(C(=O)O)c3)c(S(=O)(=O)O)cc2c1` [Compound 51], the remaining activity at 10 µM in test [1] (setting [4]) stood at 1.1%. Moreover, the IC50 on HIV integrase [2] (setting [7]) turned out to be 0.5 µM; on HIV integrase [3] (setting [8]), 0.9 µM.
`COc1ccc(C(=O)O)c(N=Nc2c(S(=O)(=O)O)cc3cc(NC(=O)C(=O)Nc4ccc5c(O)c(N=Nc6c(C(=O)O)ccc(OC)c6OC)c(S(=O)(=O)O)cc5c4)ccc3c2O)c1OC` [Compound 101]: the IC50 on HIV integrase [2] (setting [7]) was 0.5 µM; on HIV integrase [3] (setting [8]), 2 µM.
With `COc1cc(C(=O)O)c(N=Nc2c(S(=O)(=O)O)cc3cc(NC(=O)Nc4ccc5c(O)c(N=Nc6c(C(=O)O)cc(OC)c(OC)c6OC)c(S(=O)(=O)O)cc5c4)ccc3c2O)c(OC)c1OC` [Compound 50], the remaining activity at 10 µM in test [1] (setting [4]) turned out to be 1.3%. The IC50 at HIV integrase [2] (setting [7]) and on HIV integrase [3] (setting [8]) was 2 µM in each case.
For the compound `COc1cc(N=Nc2c(S(=O)(=O)O)cc3cc(NC(=O)C(=O)Nc4ccc5c(O)c(N=Nc6cc(OC)c(OC)c(OC)c6)c(S(=O)(=O)O)cc5c4)ccc3c2O)cc(OC)c1OC` [Compound 110], the IC50 on HIV integrase [2] (setting [7]) was 1.1 µM; on HIV integrase [3] (setting [8]) it was 0.4 µM.
For `COc1ccc(N=Nc2c(S(=O)(=O)O)cc3cc(NC(=O)Nc4ccc5c(O)c(N=Nc6ccc(OC)cc6)c(S(=O)(=O)O)cc5c4)ccc3c2O)cc1` [Compound 73] the same measures were 1 µM and 0.6 µM.
With `CCOC(=O)c1ccccc1N=Nc1c(S(=O)(=O)O)cc2cc(NC(=O)Nc3ccc4c(O)c(N=Nc5ccccc5C(=O)OCC)c(S(=O)(=O)O)cc4c3)ccc2c1O` [Compound 42], the remaining activity at 10 µM in test [1] (setting [4]) was 47%. Besides, the IC50 on HIV integrase [2] (setting [7]) and at HIV integrase [3] (setting [8]) was > 3 µM each time.
On to `O=C(Nc1ccc2c(O)c(N=Nc3cnc4ccccc4c3)c(S(=O)(=O)O)cc2c1)Nc1ccc2c(O)c(N=Nc3cnc4ccccc4c3)c(S(=O)(=O)O)cc2c1` [Compound 37], for which, in test [1] (setting [4]), the remaining activity at 10 µM is 16%. Further, the IC50 on HIV integrase [2] (setting [7]) and at HIV integrase [3] (setting [8]) was > 3 µM each time.
As for `O=C(O)Cc1ccc(N=Nc2c(S(=O)(=O)O)cc3cc(NC(=O)C(=O)Nc4ccc5c(O)c(N=Nc6ccc(CC(=O)O)cc6)c(S(=O)(=O)O)cc5c4)ccc3c2O)cc1` [Compound 93], the IC50 at HIV integrase [2] (setting [7]) turned out to be 0.9 µM; at HIV integrase [3] (setting [8]), 0.5 µM.
Consider `O=C(Nc1ccc2c(O)c(N=Nc3ccc(Br)cc3Br)c(S(=O)(=O)O)cc2c1)Nc1ccc2c(O)c(N=Nc3ccc(Br)cc3Br)c(S(=O)(=O)O)cc2c1` [Compound 41], for which the remaining activity at 10 µM in test [1] (setting [4]) came out at 66%. For the same compound, the IC50 on HIV integrase [2] (setting [7]) and on HIV integrase [3] (setting [8]) was > 20 µM throughout.
`O=C(Nc1ccc2c(O)c(N=Nc3ccc(CP(=O)(O)O)cc3)c(S(=O)(=O)O)cc2c1)Nc1ccc2c(O)c(N=Nc3ccc(CP(=O)(O)O)cc3)c(S(=O)(=O)O)cc2c1` [Compound 61]: the remaining activity at 10 µM in test [1] is 53%. Moreover, the IC50 on HIV integrase [2] (setting [7]) and at HIV integrase [3] (setting [8]) was > 3 µM each time.
As to `COc1cc(N=Nc2c(S(=O)(=O)O)cc3cc(NC(=O)Nc4ccc5c(O)c(N=Nc6cc(OC)cc(OC)c6)c(S(=O)(=O)O)cc5c4)ccc3c2O)cc(OC)c1` [Compound 38], the remaining activity at 10 µM in test [1] (setting [4]) was determined as 47%. Also, the IC50 at HIV integrase [2] (setting [7]) and on HIV integrase [3] (setting [8]) was > 3 µM each time.
In the case of `O=C(O)CCCc1ccc(N=Nc2c(S(=O)(=O)O)cc3cc(NC(=O)C(=O)Nc4ccc5c(O)c(N=Nc6ccc(CCCC(=O)O)cc6)c(S(=O)(=O)O)cc5c4)ccc3c2O)cc1` [Compound 95], the IC50 on HIV integrase [2] (setting [7]) is 0.4 µM; on HIV integrase [3] (setting [8]), 0.7 µM.
As for `O=C(Nc1ccc2c(O)c(N=Nc3cccc(C(=O)O)c3)c(S(=O)(=O)O)cc2c1)C(=O)Nc1ccc2c(O)c(N=Nc3cccc(C(=O)O)c3)c(S(=O)(=O)O)cc2c1` [Compound 96], the values for the IC50 on HIV integrase [2] (setting [7]) and at HIV integrase [3] (setting [8]) were 0.5 µM and 0.4 µM, respectively.
On the same counts, the results for `O=C(Nc1ccc2c(O)c(N=Nc3ccccc3)c(S(=O)(=O)O)cc2c1)C(=O)Nc1ccc2c(O)c(N=Nc3ccccc3)c(S(=O)(=O)O)cc2c1` [Compound 106] are 1.5 µM and 0.4 µM.
For `CCOC(=O)c1cccc(N=Nc2c(S(=O)(=O)O)cc3cc(NC(=O)Nc4ccc5c(O)c(N=Nc6cccc(C(=O)OCC)c6)c(S(=O)(=O)O)cc5c4)ccc3c2O)c1` [Compound 43], the remaining activity at 10 µM in test [1] (setting [4]) came out at 52%. The IC50 at HIV integrase [2] (setting [7]) and on HIV integrase [3] (setting [8]) was > 20 µM each time.
For `Cc1ccc(CO)cc1N=Nc1c(S(=O)(=O)O)cc2cc(NC(=O)Nc3ccc4c(O)c(N=Nc5cc(CO)ccc5C)c(S(=O)(=O)O)cc4c3)ccc2c1O` [Compound 55], the remaining activity at 10 µM in test [1] (setting [4]) stood at 24%. Also, the IC50 at HIV integrase [2] (setting [7]) and on HIV integrase [3] (setting [8]) was > 3 µM in each case.
Turning to `O=C(Nc1ccc2c(O)c(N=Nc3ccccc3)c(S(=O)(=O)O)cc2c1)Nc1ccc2c(O)c(N=Nc3ccccc3)c(S(=O)(=O)O)cc2c1` [Compound 62], the IC50 at HIV integrase [2] (setting [7]) turned out to be 0.4 µM; on HIV integrase [3] (setting [8]), 0.5 µM.
For the compound `COc1ccc(N=Nc2c(S(=O)(=O)O)cc3cc(NC(=O)Nc4ccc5c(O)c(N=Nc6ccc(OC)c(OC)c6)c(S(=O)(=O)O)cc5c4)ccc3c2O)cc1OC` [Compound 39], in test [1] (setting [4]), the remaining activity at 10 µM was determined as 12%. The IC50 at HIV integrase [2] (setting [7]) is 2 µM; at HIV integrase [3] (setting [8]), 3 µM.
As to `CC(=O)Nc1ccc(N=Nc2c(S(=O)(=O)O)cc3cc(NC(=O)C(=O)Nc4ccc5c(O)c(N=Nc6ccc(NC(C)=O)cc6)c(S(=O)(=O)O)cc5c4)ccc3c2O)cc1` [Compound 108], the concentration for half-maximal inhibition (IC50) amounted to 1 µM at HIV integrase [2] (setting [7]) and 0.7 µM at HIV integrase [3] (setting [8]).
For `O=C(O)CCc1ccc(N=Nc2c(S(=O)(=O)O)cc3cc(NC(=O)C(=O)Nc4ccc5c(O)c(N=Nc6ccc(CCC(=O)O)cc6)c(S(=O)(=O)O)cc5c4)ccc3c2O)cc1` [Compound 94] the same measures were 1 µM and 0.4 µM.
On the same counts, the results for `O=C(O)CCc1ccc(N=Nc2c(S(=O)(=O)O)cc3cc(NC(=O)Nc4ccc5c(O)c(N=Nc6ccc(CCC(=O)O)cc6)c(S(=O)(=O)O)cc5c4)ccc3c2O)cc1` [Compound 68] are 0.4 µM and 0.4 µM.
As to `CC(=O)Nc1ccc(N=Nc2c(S(=O)(=O)O)cc3cc(NC(=O)Nc4ccc5c(O)c(N=Nc6ccc(NC(C)=O)cc6)c(S(=O)(=O)O)cc5c4)ccc3c2O)cc1` [Compound 72], the IC50 turned out to be 1 µM on HIV integrase [2] (setting [7]) and 0.5 µM on HIV integrase [3] (setting [8]).
As to `COc1cc(N=Nc2c(S(=O)(=O)O)cc3cc(NC(=O)C(=O)Nc4ccc5c(O)c(N=Nc6cc(OC)c(C(=O)O)cc6Cl)c(S(=O)(=O)O)cc5c4)ccc3c2O)c(Cl)cc1C(=O)O` [Compound 100], the IC50 amounted to 0.4 µM at HIV integrase [2] (setting [7]) and 0.7 µM at HIV integrase [3] (setting [8]).
